Patent US20050042256A1, “Lipid blends and food products containing oleic fatty acid and omega-6 fatty acids, designed to increase the intramyocellular lipid level” (priority 2001, published 2005)

Test system: Human skeletal muscle cells
Assay: IMCL (triacylglycerol) accumulation in muscle cells incubated with fatty acids
Format: cell-based
Settings: 0.5 mM FFA salt bound to albumin, DMEM + 25 mM glucose, 24 hrs at 37° C; FIGURE 1
Description: Human skeletal muscle cells were used as a model to test the effect that different fatty acids (as precursors) may have on the extent of muscle triglyceride storage.
Primary cultures were initiated from a bank of satellite cells of muscle biopsies obtained from patients free of muscle disease. Aneural muscle cultures were established in a monolayer, then they were grown in a DMEM-M-199 medium, 3:1, supplemented with 10% fetal bovine serum, 10 μg/ml insulin, 2 mM glutamine, 25 ng/ml fibroblast growth factor, and 10 ng/ml epidermal growth factor. Immediately after myoblast fusion, cells were rinsed in Hank's balanced salt solution and a medium devoid of FGF, EGF, and glutamine was added. Muscle cultures were maintained in this medium for up to 4 weeks.
Cells were incubated with DMEM+glucose (25 mM)+0.5 mM FFA salt bound to albumin (in independent experiments for each FFA), for 24 hrs at 37° C. As examples for the fatty acids used in blend 1 (promoting IMCL storage), oleate (C18:1 cis), linoleate (C18:2 cis/cis), n-6 linoleate and n-3 linoleate.
As examples for the fatty acids used in blend 2 (inhibiting IMCL storage), octanoate (C8:0), palinitate (C16:0) and stearate (C18:0).
After incubation, cell lipids were extracted according to the method of Bligh and Dyer (Can. J. Biochem Physiol 37: 911-917, 1959). To determine the IMCL content, extracts were prepared by scraping cell monolayers in a buffer consisting of 50 mM Tris, 100 mM KCl, 20 mM KF, 0.5 mM EDTA and 0.05% Lubrol PX, pH 7.9, and they were sonicated three times for 5 seconds. Homogenates were centrifuged at 11′000 g for 15 min and the resulting supernatants were collected. Total triacylglycerol (i.e. IMCL) was measured with a Cobas-Bio autoanalyzer with a GPO-Trinder kit, with triolein resuspended in the extraction buffer as a standard. The intramyocellular nature of the triglycerides was evidenced by histo-chemical staining with Sudan III in 70% ethanol.

Compound	accumulation / synthesis of IMCL (total triacylglycerol)
CCCCC/C=C\C/C=C\CCCCCCCC(=O)O [linoleate, linoleate (C18:2 cis/cis)]	notably higher synthesis
CCCCCCCC(=O)O [octanoate, octanoate (C8:0)]	no accumulation of IMCL
CCCCCCCC/C=C\CCCCCCCC(=O)O [oleate, oleate (C18:1 cis)]	notably higher synthesis
CCCCCCCCCCCCCCCCCC(=O)O [stearate, stearate (C18:0)]	moderate synthesis
